Data on four compounds can be found in patent US10494377B1, “Bergenin lipoic acid ester with antioxidant activity and a method of preparing the same” (SHAANXI UNIVERSITY OF SCIENCE AND TECHNOLOGY, priority 2018, dated 2019).

Test [1] in a line: DPPH radical scavenging activity assay. It is filed as biochemical. The settings on record: for DPPH clearance rate: n = 3, 30 min, 517 nm; for scavenging effect on DPPH (in words): FIG. 1, 7.02-7020 ppm. An excerpt:
The Antioxidant Activity of Bergenin Lipoic Acid Ester Measured by a DPPH Radical Scavenging Activity Assay
2,2-Diphenyl-1-picryl hydrazyl (DPPH) is an organic compound composed of a stable organic radical. In the DPPH molecule, due to the presence of multiple electron-withdrawing —NO2 and large π bonds of the benzene ring, nitrogen free radical is stabilized. Its methanol solution is purple and has a maximum absorption peak at 517 nm. After the addition of an antioxidant, DPPH captures an electron to be paired with the free electron, and the purple fades and turns into a yellow substance. The absorption at 517 nm disappears, and the degree of fading is quantitatively related to the number of electrons it captures. Based on this principle, a spectrophotometer is used to detect the change of the absorbance of the DPPH radical in the sample solution, and the ability of the sample to provide hydrogen atoms and scavenge free radicals can be measured.
Preparation of DPPH solution: measuring exact amount of 2,2-diphenyl-1-picryl hydrazyl (DPPH) and dissolving in methanol to prepare a 0.2 mmol/L DPPH solution, stored at 0° C. in dark.
Preparation of test solutions: Vc (vitamin C, positive control), bergenin lipoic acid ester (sample), bergenin (control), lipoic acid (control), and mixture of bergenin and lipoic acid (reference). The test solutions were serially diluted with acetonitrile, and four groups of controls were separately dissolved in a test tube with a certain amount of methanol to prepare the same concentration gradient as the sample.
Absorbance measurement: Take 2 mL of sample solution (Table 1, number B), add 2 mL of DPPH solution with concentration of 2*10^−4 moL/L, mix and react in the dark at room temperature for 30 min, adjust to zero with methanol, and measure at 517 nm. The absorbance Ai was simultaneously measured for the absorbance Aj of 2 mL of methanol mixed with 2 mL of the sample solution and the absorbance Ao of 2 mL of DPPH solution mixed with 2 mL of acetonitrile (The experimental results are shown in Table 2).
Clearance calculation: clearance rate (%) [1−(Ai−Aj)/Ao]*100%

The conditions of test [2]: Takahashi et al. 2003; cited from earlier work.
The conditions of test [3]: Takahashi et al. 2003; cited from earlier work. The source holds these as a separate data set.

As to `COc1c(O)cc2c(c1O)C1OC(COC(=O)CCCCC3CCSS3)C(O)C(O)C1OC2=O` (stereo not shown) [B, Bergenin lipoic acid ester], the DPPH clearance rate in test [1] (7.02 ppm) amounted to 27.56%; in test [1] (140.4 ppm) it was 60.83%; in test [1] (702 ppm) it was 76.34%; in test [1] (2808 ppm) it was 94.92%; in test [1] (7020 ppm), 97.64%. Further, the “scavenging effect on DPPH (in words)” value is recorded as “better than E” in test [1] and “significant scavenging effect on DPPH in a concentration-dependent manner” in test [1] (listed as bergenin lipoic acid ester). For the same compound, in test [1] (concentration above 2808 ppm), the “scavenging ability compared with Vc (in words)” value is reported as “close to the scavenging ability of Vc”.

As to `COc1c(O)cc2c(c1O)[C@@H]1O[C@H](CO)[C@@H](O)[C@H](O)[C@H]1OC2=O` [C, Bergenin], the DPPH clearance rate in test [1] (7.02 ppm) is 15.57%; in test [1] (140.4 ppm), 19.79%; in test [1] (702 ppm) it was 30.98%; in test [1] (2808 ppm), 54.56%; in test [1] (7020 ppm), 90.01%. Also, the “scavenging effect on DPPH free radicals (in words)” value in test [2] is “good scavenging effect”. For the same compound, the “scavenging effect on superoxide anions (in words)” value in test [3] was “good scavenging effect”.

For the compound `O=C(O)CCCCC1CCSS1` (stereo not shown) [D, Lipoic acid], the DPPH clearance rate in test [1] (7.02 ppm) stood at 20.40%; in test [1] (140.4 ppm) it was 28.64%; in test [1] (702 ppm), 39.66%; in test [1] (2808 ppm) it was 60.54%; in test [1] (7020 ppm), 82.95%.

For the compound `O=C1O[C@H]([C@@H](O)CO)C(O)=C1O` [Vc, Vitamin C], the DPPH clearance rate came to 82.01% in test [1] (7.02 ppm); 95.17% in test [1] (140.4 ppm); 95.70% in test [1] (702 ppm); 99.90% in test [1] (2808 ppm); 99.90% in test [1] (7020 ppm).
